Legend:
[1] = tested on: LNCaP human prostate cancer cells; assay: MTT cell proliferation assay, LNCaP; type: cell-based
Method: (§1) Human prostate normal cell line (RWPE-1) and human prostate cancer cell lines; LNCaP and PC-3, were purchased from the American Type Culture Collection (ATCC, Manassas, Virginia, USA). LNCaP and PC-3 cells were grown in Roswell Park Memorial Institute medium (RPMI) supplemented with 10% heat-inactivated fetal bovine serum (FBS, Sigma-Aldrich, St. Louis, MO), 1% penicillin and streptomycin. RWPE-1 cells were maintained in Keratinocyte Serum Free Medium (K-SFM, ATCC) supplemented with bovine pituitary extract (BPE) and human recombinant epidermal growth factor (EGF). Mediums were supplemented with 10% heat-inactivated fetal calf serum (Sigma.), 100 U/ml penicillin and […] streptomycin (Flowlab, Sydney, Australia). All cells were maintained in a humidified atmosphere of 5% CO2 in air at 37°C incubator.
(§2) The anti-proliferative activity was evaluated by performing MTT assays as previously described with minor modifications. Briefly, cells were seeded 24 hours prior to treatment in a 96-well plate at 5×10^4 cells/well in order to obtain 70% to 80% confluent cultures. The compounds were dissolved in DMSO (Sigma Chemical Co., St. Louis, Missouri, USA) followed by a 2×serial dilution for 10 points ranged from 0.825 µM to 100 µM. The 96-well plate was incubated for 24 hours at 37°C in a humidified atmosphere with 5% CO2. At the end of incubation, 50 µl of MTT solution (2 mg/ml; Sigma) was added to each well. The plate was then incubated for 4 hours. All medium was removed and the purple formazan crystal formed at the bottom of the wells was dissolved with 200 µl DMSO for 20 minutes. The absorbance at 570 nm was read on a spectrophotometric plate reader (Hidex). The proportion of surviving cells was calculated as: […]
(§3) Dose-response curves were constructed to obtain the IC50 values. Experimental data were derived from 3 independent experiments. The selectivity index was obtained by mean IC50 RWPE-1/mean IC50 of LNCaP or PC-3.

[2] = tested on: PC-3 human prostate cancer cells; assay: MTT cell proliferation assay, PC-3; type: cell-based
Method: as §1, §2, §3

[3] = tested on: RWPE-1 human normal prostate epithelial cells; assay: MTT cell proliferation assay, RWPE-1; type: cell-based; details: 24 hours, RWPE-1 normal cells, mean ± S.D.
Method: as §1, §2, §3

[4] = tested on: caspase-3/7 in LNCaP cells; assay: Caspase-Glo 3/7 bioluminescent assay, LNCaP; type: cell-based, human
Method: (§4) A time-dependent study of caspase-3/7, -8, and -9 activities was performed in triplicates using assay kits Caspase-Glo 3/7, 8, and 9 (Promega Corp.,Madison,WI, USA) on white 96-well microplate as described previously. A total of 10,000 cells per well was seeded and treated with […] of subditine (1) for 6, 12, 18, 24, and 30 hours. Then, 100 µL of the caspase-Glo reagent was added, incubated at room temperature for 30 minutes and measured using Tecan Infinite 200 Pro (Tecan, Mannedorf, Swizerland) microplate reader.

[5] = tested on: caspase-3/7 in PC-3 cells; assay: Caspase-Glo 3/7 bioluminescent assay, PC-3; type: cell-based, human
Method: as §4

caspase-9 in PC-3 cells = assay: Caspase-Glo 9 bioluminescent assay, PC-3; type: cell-based, human
Method: as §4

caspase-8 in LNCaP cells = assay: Caspase-Glo 8 bioluminescent assay, LNCaP; type: cell-based, human; details: 12.5 µM, throughout 30 hours
Method: as §4

caspase-8 in PC-3 cells = assay: Caspase-Glo 8 bioluminescent assay, PC-3; type: cell-based, human; details: PC-3, 12.5 µM, throughout 30 hours
Method: as §4

[6] = tested on: intracellular ROS in PC-3 cells; assay: ROS assay (DHE dye, Cellomics HCS), PC-3; type: cell-based, human; details: PC-3, 12.5, 25, 50 µM, 24 h
Method: The production of intracellular ROS was detected as described previously. The DHE dye reagent is converted to fluorescent ethidium and intercalates into DNA in response intracellular ROS. Briefly, 10 mM DHE stock solution (in methanol) was diluted 500-fold in HBSS without serum or other additives to yield a 20 µM working solution. After exposure to subditine (1), the cells in the 96-well black plate was washed twice with HBSS and then incubated in 100 µL working solution of DHE at 37°C for 30 minutes. Fluorescence of DCF in each cell was captured, extracted and analyzed with ArrayScan II Data Acquisition and Data Viewer version 3.0 (Cellomics).

[7] = tested on: Bcl-xL expression in PC-3 cells; assay: Western blotting, Bcl-xL in PC-3; type: cell-based, human; details: 24 h
Method: (§5) To determine protein expression, 1×10^6 cells/mL were seeded and treated with subditine (1) or paclitaxel for 24 h. Whole cell extracts were prepared as previously described. Briefly, cells were collected, lysed and resolved on 10% SDS-polyacrylamide gels. After electrophoresis, the proteins were transferred to PVDF membranes (Millipore), blocked with 5% nonfat dry milk in PBS-T (0.05% Tween 20) for 1 hour at room temperature. Membranes were probed with primary rabbit anti-Bcl-2, Bcl-xL or p53 antibodies followed by horseradish peroxidase (HRP)-conjugated secondary anti-rabbit antibody (Cell Signaling Technology Inc., CA, USA). Membranes were stripped and reprobed with mouse anti-β-actin antibody as loading control (Santa Cruz Biotechnology Inc.). Protein-antibody complexes were detected with Amersham ECL prime Western blotting detection reagent (GE Healthcare, USA).

[8] = tested on: p53 expression in LNCaP cells; assay: Western blotting, p53 in LNCaP; type: cell-based, human; details: LNCaP (p53-wild-type), 24 h
Method: as §5

[9] = PC-3, after 12 and 24 hours exposure, 12.25 µM

For `Cc1ncc2c(=O)n3c(cc2c1C=O)-c1[nH]c2ccccc2c1CC3` [Subditine, subditine], the IC50 ([1]; Homo sapiens, MTT, 24 hours, LNCaP, mean ± S.D.) was 12.2 ± 0.19 µM, the “folds more potent against LNCaP than normal prostate cells RWPE-1” value ([1]; LNCaP vs RWPE-1) was 2.5 folds and the “selectivity index (SI) LNCaP” value ([1]; mean IC50 RWPE-1/mean IC50 of LNCaP) was 2.49. The IC50 ([2]; Homo sapiens, MTT, 24 hours, PC-3, mean ± S.D.) was 14 ± 0.32 µM, the “folds more potent against PC-3 than normal prostate cells RWPE-1” value ([2]; PC-3 vs RWPE-1) was 2.2 folds and the “selectivity index (SI) PC-3” value ([2]; mean IC50 RWPE-1/mean IC50 of PC-3) was 2.18. For the same compound, the IC50 [3] was 30.48 ± 0.08 µM, the caspase-3/7 activity ([4]; after 12 and 24 hours exposure, 12.25 µM) was “significant increase” and the “time of peak caspase-3/7 activity” value ([4]; time points 6-30 hours) was 18 h. For the same compound, the caspase-3/7 activity [5, 9] was “significant increase”, the “time of peak caspase-3/7 activity” value ([5]; PC-3, time points 6-30 hours) was 18 h and the caspase-9 activity (caspase-9 in PC-3 cells; [9]) was “significant increase”. The “time of highest caspase-9 activity” value (caspase-9 in PC-3 cells; PC-3, time points 6-30 hours) was 24 h, the “caspase 8 activity” value (caspase-8 in LNCaP cells) was “No significant fold-change” and the “caspase 8 activity” value (caspase-8 in PC-3 cells) was “No significant fold-change”. For the same compound, the “ROS production (DCF/DHE fluorescence level)” value [6] was “significantly increased in a dose-dependent manner”, the Bcl-xL protein expression ([7]; PC-3, 12.5 µM, compared to control) was “no significant change” and the Bcl-xL protein expression ([7]; PC-3, 25 and 50 µM) was “drastically down-regulated”. For the same compound, the p53 expression [8] was “up-regulate”.
